Reference: article PMC6178849, “Activation of Glutathione Peroxidase 4 as a Novel Anti-inflammatory Strategy” (Frontiers in Pharmacology, 2018)

Target: T1, glutathione peroxidase 4 (hGPX4-C) (Homo sapiens, UniProt P36969, U73C)
T1 construct: gene GPX4; human cytosolic GPX4 (c-GPX4), his-tagged, expressed in E. coli M15
Assay: activation of purified GPX4 in a glutathione reductase/NADPH coupled assay; Tm shift about […]°C; D23A mutant loses activation; CETSA in HEK293T cells
Format: biochemical
Details: read-out: % (maximum activation)

T1 sequence (P36969 other isoform, or with tags, fused parts or gaps U73C): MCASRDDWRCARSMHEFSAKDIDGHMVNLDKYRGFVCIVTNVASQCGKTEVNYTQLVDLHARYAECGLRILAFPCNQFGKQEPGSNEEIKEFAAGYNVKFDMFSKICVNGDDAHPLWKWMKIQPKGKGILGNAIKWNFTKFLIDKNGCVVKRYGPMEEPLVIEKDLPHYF

## NC1=NC2(O)C(=O)c3ccccc3C2(O)N1 (stereo not shown) [compound 102, PKUMDL-LC-102]
  Emax: 236%
